Test results reported in PubChem BioAssay (NCI).
Where “and” joins values, the source holds several entries; their conditions need not be identical. Identical values can stand only once.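 Test compounds were applied to cells in 96-well plates for 48 hours at 5 doses. GI50: concentration for 50% inhibition of growth. TGI is the concentration that stops growth completely.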

Legend:
Assay in all cases: NCI-60 cell line screen, 48 h
KM12 colon = system: KM12 colon
SF-295 CNS = system: SF-295 CNS
MCF7 breast = system: MCF7 breast
EKVX NSCLC = system: EKVX NSCLC
NCI-H460 lung = system: NCI-H460 lung
NCI-H522 lung = system: NCI-H522 lung
SF-539 CNS = system: SF-539 CNS
OVCAR-8 ovarian = system: OVCAR-8 ovarian
M14 melanoma = system: M14 melanoma
SK-MEL-5 melanoma = system: SK-MEL-5 melanoma

SMILES	GI50 (KM12 colon) [µM]	TGI (KM12 colon) [µM]	GI50 (SF-295 CNS) [µM]	TGI (SF-295 CNS) [µM]	GI50 (MCF7 breast) [µM]	TGI (MCF7 breast) [µM]	GI50 (EKVX NSCLC) [µM]	TGI (EKVX NSCLC) [µM]	GI50 (NCI-H460 lung)	TGI (NCI-H460 lung) [µM]	GI50 (NCI-H522 lung) [µM]	TGI (NCI-H522 lung) [µM]	GI50 (SF-539 CNS)	TGI (SF-539 CNS)	GI50 (OVCAR-8 ovarian)	TGI (OVCAR-8 ovarian)	GI50 (M14 melanoma) [µM]	TGI (M14 melanoma)	GI50 (SK-MEL-5 melanoma) [µM]	TGI (SK-MEL-5 melanoma) [µM]
CCOc1cccc(-c2nc(N)nc(Nc3ccccc3SSc3ccccc3Nc3nc(N)nc(-c4cccc(OCC)c4)n3)n2)c1	3.53	> 100	3.92	> 100	4.97	> 100	3.56	> 100	3.03 µM	> 100	7.77	48.9	9.2 µM	> 100 µM	4.43 µM	> 100 µM	4.1	> 100 µM	6.8	> 100
CCCCCCCCn1ccc2cc(NC(=O)Cn3cc(CN4CCCCC4)nn3)ccc21	2.23	5	1.81	3.65	1.85	4.29	2.89	13.9	1.89 µM	3.67	1.8	4	1.81 µM	3.26 µM	2.98 µM	9.3 µM	1.78	3.43 µM	1.77	3.16
CCN(CC)C1CCC(Nc2c(C(C)=O)cnc3ccc(-c4ccc(O)c(Cl)c4)cc23)CC1 (stereo not given)	0.432	4.28	4.46	24.9	0.229	1.42	1.82	> 47.2	0.311 µM	1.87	0.331	1.71	0.551 µM	7.87 µM	0.818 µM	14 µM	0.468	15.4 µM	0.782	4.55
COc1cc2c(cc1OC)C1Cc3cc(OC)c(OC)cc3C(C2)N1C	–	> 100	–	> 100	–	> 75	–	> 100	30.3 µM and 78.9 µM	> 100	–	> 100	–	> 75 µM	–	> 100 µM	–	> 100 µM	–	> 100
CC(C)(C)CC(N)=O	–	> 100	–	> 100	–	> 100	–	> 100	–	> 100	–	> 100	–	> 100 µM	–	> 100 µM	–	> 100 µM	–	> 100
CC(=O)Oc1ccc(/C(=C(\C)c2ccc(Cl)cc2)c2ccc(OCCN3CCCCC3)cc2)cc1	1.77	3.97	1.72	3.27	–	2.55	2.15	6.32	1.91 µM	3.66	1.71	3.49	1.84 µM	3.57 µM	2.15 µM	4.88 µM	1.69	3.17 µM	1.69	3.07
COc1ccc(C2C=C(c3ccc4c(c3)OCO4)Oc3c2c(=O)oc2ccccc32)cc1OC (stereo not given)	–	> 100	–	> 100	–	> 100	–	> 100	–	> 100	–	> 66.3	–	1.81 µM	–	> 100 µM	–	> 100 µM	–	> 100
Oc1cc2ccccc2c(-c2c(O)c(O)cc3ccccc23)c1O	2.81	17.4	0.77	> 29.6	0.228	13	1.87	> 44.4	0.145 µM	2.78	2.31	21	1.68 µM	5.46 µM	2.16 µM	> 24 µM	1.4	11.4 µM	1.1	4.49
COc1cc(C(=O)N/N=C/c2ccc(N(C)C)cc2)cc(OC)c1OC	0.428	26.4	0.288	–	0.34	> 100	> 100	> 100	0.376 µM	31.7	0.161	0.937	0.3 µM	5.25 µM	0.599 µM	> 100 µM	0.335	> 100 µM	0.198	1.16
COc1ccc(C2C(C)C(=O)C(C)C(c3ccc(OC)cc3)N2N=O)cc1 (stereo not given)	–	> 1000	20.7	491	–	> 1000	–	> 1000	> 750 µM	> 1000	> 750	> 750	18 µM and 41.3 µM	46.8 µM and 341 µM and 222 µM	30.5 µM and 248 µM	750 µM and > 1000 µM	–	750 µM and > 732 µM	> 750	> 750
O=C1c2cccc(NCCN=Cc3ccccc3O)c2C(=O)c2c(NCCN=Cc3ccccc3O)cccc21	0.353	1.44	0.409	1.88	0.279	1.08	1.87	8.39	0.399 µM	1.52	0.278	1.38	1.48 µM	4.57 µM	0.369 µM	2.47 µM	1.88	5.63 µM	1.55	4.03
